Consider 3 compounds from patent publication US10221177B2 (HYDRA BIOSCIENCES, INC., priority 2014, dated 2019).

One may read the IC50 as the point on the concentration scale where inhibition reaches its midpoint.

“And” between values parts separate entries of the source, which are not always exact repeats. Equal entries are not always repeated.

For one assay, the target named is human TRPA1 (Homo sapiens (Human), UniProt O75762). Kind of assay: In vitro inhibition of human TRPA1, whole cell patch configuration. The class given is cell-based. As to conditions: current activation 10 μM AITC, tested concentrations 320 pM to 3.2 μM, read-out: hTRPA1 IC50. In outline: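 Compound antagonism measured from voltage ramps (±100 or ±80 mV, 400 ms, every 4 s from −40 mV), analysed at −80 and 80 mV, or at constant −60 mV. HEPES-buffered NaCl bath, pH 7.4, EGTA or 2 mM Ca2+; temperature set by perfusion, within ±2° C; no junction-potential correction.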

Assay [1] deals with CFA-induced cold hypersensitivity of the hind paw. The experiment in a line: CFA-induced pain test, cold hypersensitivity (cold plate paw withdrawal latency). Type of assay: in vivo. The following applies: cold plate 1° C.; for Average PWL Post-Treatment / PWL Change: 1-2 hour pre-treatment; for Average PWL Post-CFA: baseline before dosing. Here is the method: Embodiments of the invention may be efficacious in the treatment of inflammatory pain. Compounds of the invention were tested by the CFA-induced pain test method. Compounds were formulated as solutions in water with various solvents and excipients including dimethyl sulfoxide (DMSO), polyethylene glycol (15)-hydroxystearate (Solutol®, Sigma-Aldrich), caprylocaproyl macrogol-8 glyceride (Labrasol®, Sigma-Aldrich), polysorbate-80 (Tween®-80, Sigma-Aldrich), and polyoxyl 35 castor oil (Cremophor® EL, BASF Corp.); or suspensions in methylcellulose as indicated in Table 3 for oral delivery. Briefly, the hind paw was sensitized to cold temperature (allodynic) by administering 0.1 mL of Complete Freund's Adjuvant (CFA) to the right hind paw. Three days later, the time taken for the animal to lift its CFA-injected paw was recorded compared to its un-injected normal left hind paw. […] To avoid tissue damage the maximum cut-off time was 5 minutes. Animals that were allodynic (average PWL to the first three pain behaviors <150 seconds for the CFA-injected hind paw: ˜≥50% difference between the normal and CFA-injected paw) were included in the study and subsequently randomized across treatment groups. The following day, the animals were dosed orally under blinded conditions. Following the 1-2 hour pre-treatment time, the post-dose PWL readings were again taken. The efficacy of the drug treatment was assessed by comparing the PWL in the drug treatment animals to those animals that receive the vehicle. P values, when indicated, indicate significance compared Vehicle.

Assay [2] deals with formalin-induced pain behaviors in the rat. The experiment in a line: Formalin-induced pain test (formalin model), duration of pain behaviors. Type of assay: in vivo. As for the experimental part:
Exemplary compounds of the invention were tested in the formalin-induced pain test reported by Dubuisson et al., Pain 1977 December; 4(2):161-74 (incorporated herein by reference in its entirety). Briefly, dilute formalin (50 μL of 3% formalin) was injected into the plantar surface of the hind paw of a rat. […] The individual responsible for counting the pain behaviors in a particular study was blinded to the treatment groups.
The initial phase (Phase I: 0-5 min) is thought to have a significant component that is dependent upon direct activation of afferent fibers by formalin and functional TRPA1 (McNamara et al., 2007).
Investigators studied oral administration of compounds of the invention at the doses presented in Table 3 on pain behaviors in the formalin model in the rat. Compounds were formulated as solutions in water with various solvents and excipients including dimethyl sulfoxide (DMSO), polyethylene glycol (15)-hydroxystearate (Solutol®, Sigma-Aldrich), caprylocaproyl macrogol-8 glyceride (Labrasol®, Sigma-Aldrich), polysorbate-80 (Tween®-80, Sigma-Aldrich), and polyoxyl 35 castor oil (Cremophor® EL, BASF Corp.); or suspensions in methylcellulose as indicated in Table 3. Animals were dosed orally with the vehicle, or compounds of the invention one hour prior to intraplantar formalin. […] A decrease over Vehicle indicates a positive result. P values, when indicated, indicate significance compared Vehicle.

The mark [3] stands for this setting: 0.3 mg/kg PO, solution in 4% DMSO, 5% Tween-80, 20% Cremophor EL, and 71% water.
[4] abbreviates: 1 mg/kg PO, solution in 4% DMSO, 5% Tween-80, 20% Cremophor EL, and 71% water.
[5] abbreviates: 3 mg/kg PO, solution in 4% DMSO, 5% Tween-80, 20% Cremophor EL, and 71% water.
Where [6] appears, read: group 0.3 mg/kg PO, solution in 4% DMSO, 5% Tween-80, 20% Cremophor EL, and 71% water.
Setting [7] is: group 1 mg/kg PO, solution in 4% DMSO, 5% Tween-80, 20% Cremophor EL, and 71% water.
Where [8] appears, read: group 3 mg/kg PO, solution in 4% DMSO, 5% Tween-80, 20% Cremophor EL, and 71% water.
The mark [9] stands for this setting: 10 mg/kg PO one hour prior to formalin, solution in 4% DMSO, 5% Tween-80, 20% Cremophor EL, 71% water.
The mark [10] stands for this setting: 0.3 mg/kg PO, suspension in 0.5% methylcellulose.
Where [11] appears, read: 1 mg/kg PO, suspension in 0.5% methylcellulose.
Setting [12] is: 3 mg/kg PO, suspension in 0.5% methylcellulose.
The mark [13] stands for this setting: group 1 mg/kg PO, suspension in 0.5% methylcellulose.
[14] abbreviates: group 3 mg/kg PO, suspension in 0.5% methylcellulose.
The mark [15] stands for this setting: 1 mg/kg PO one hour prior to formalin, solution in 4% DMSO, 5% Tween-80, 20% Cremophor EL, 71% water.
The mark [16] stands for this setting: 1 mg/kg PO one hour prior to formalin, suspension in 0.5% methylcellulose.
Where [17] appears, read: 3 mg/kg PO one hour prior to formalin, solution in 4% DMSO, 5% Tween-80, 20% Cremophor EL, 71% water.
The mark [18] stands for this setting: 3 mg/kg PO one hour prior to formalin, suspension in 0.5% methylcellulose.
Where [19] appears, read: 10 mg/kg PO one hour prior to formalin, suspension in 0.5% methylcellulose.
The mark [20] stands for this setting: 30 mg/kg PO one hour prior to formalin, suspension in 0.5% methylcellulose.
Setting [21] is: 10 mg/kg PO, suspension in 0.5% methylcellulose.

human TRPA1, sequence (O75762 whole entry, the tested form may be a part): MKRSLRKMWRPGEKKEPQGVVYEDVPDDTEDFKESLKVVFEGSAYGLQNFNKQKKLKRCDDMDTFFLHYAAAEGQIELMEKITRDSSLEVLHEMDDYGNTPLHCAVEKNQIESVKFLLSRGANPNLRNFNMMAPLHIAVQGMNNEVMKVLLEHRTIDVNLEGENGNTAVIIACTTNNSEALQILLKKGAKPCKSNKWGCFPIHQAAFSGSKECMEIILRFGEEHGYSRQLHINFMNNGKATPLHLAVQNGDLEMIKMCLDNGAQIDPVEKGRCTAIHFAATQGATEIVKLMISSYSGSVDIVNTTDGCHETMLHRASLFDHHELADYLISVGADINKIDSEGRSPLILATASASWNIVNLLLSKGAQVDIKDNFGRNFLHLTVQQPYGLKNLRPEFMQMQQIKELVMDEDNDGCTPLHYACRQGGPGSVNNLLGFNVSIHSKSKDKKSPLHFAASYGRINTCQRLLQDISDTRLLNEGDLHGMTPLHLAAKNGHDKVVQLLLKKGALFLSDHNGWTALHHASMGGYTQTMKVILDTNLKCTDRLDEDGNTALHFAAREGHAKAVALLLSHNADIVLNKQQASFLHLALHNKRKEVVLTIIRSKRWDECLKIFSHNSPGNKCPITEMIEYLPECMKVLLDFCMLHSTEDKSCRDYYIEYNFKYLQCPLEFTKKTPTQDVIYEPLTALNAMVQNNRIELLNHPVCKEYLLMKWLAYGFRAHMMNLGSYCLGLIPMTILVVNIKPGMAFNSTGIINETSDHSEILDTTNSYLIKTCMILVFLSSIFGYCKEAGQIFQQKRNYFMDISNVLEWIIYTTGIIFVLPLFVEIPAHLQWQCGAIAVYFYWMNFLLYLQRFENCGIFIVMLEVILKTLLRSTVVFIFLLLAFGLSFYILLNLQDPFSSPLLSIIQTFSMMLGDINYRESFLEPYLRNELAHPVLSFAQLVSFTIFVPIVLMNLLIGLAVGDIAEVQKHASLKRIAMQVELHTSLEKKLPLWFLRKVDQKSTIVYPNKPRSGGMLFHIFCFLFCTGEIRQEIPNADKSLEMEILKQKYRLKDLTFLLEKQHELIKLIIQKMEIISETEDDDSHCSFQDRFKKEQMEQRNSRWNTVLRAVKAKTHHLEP

Consider `C[C@@H](C(=O)Nc1csc(-c2cnc(N3CC4CC4C3)nc2)n1)n1cnc2c1c(=O)n(CC#N)c(=O)n2C` (stereo partly drawn) [Compound 34, (2S)—N-(2-(2-(3-azabicyclo[3.1.0]hexan-3-yl)pyrimidin-5-yl)thiazol-4-yl)-2-(1-(cyanomethyl)-3-methyl-2,6-dioxo-2,3-dihydro-1H-purin-7(6H)-yl)propanamide], for which the IC50 on human TRPA1 was determined as 1 nM. Moreover, the “Average PWL Post-Treatment” value in assay [1] (setting [3]) is listed as 185.6; in assay [1] (setting [4]), 205.4; in assay [1] (setting [5]) it was 272.6. For the same compound, the “PWL Change” value in assay [1] (setting [3]) is on record as 80.7 s; in assay [1] (setting [4]), 107.4 s; in assay [1] (setting [5]), 169.0 s. Further, the “Average PWL Post-CFA” value in assay [1] (setting [6]) came to 104.9; in assay [1] (setting [7]), 98.0; in assay [1] (setting [8]) it was 103.6. Besides, in assay [2] (setting [9]), the “Duration (0-2 Minutes) Average” value was determined as 34.9 s. The “Duration (0-5 Minutes) Average” value in assay [2] (setting [9]) was 154.6 s.
`Cc1cc(Cn2c(=O)c3c(ncn3[C@@H](C)C(=O)Nc3cncc(-c4cnc(C(F)(F)F)nc4)n3)n(C)c2=O)no1` [Compound 21, (S)-2-(3-methyl-1-((5-methylisoxazol-3-yl)methyl)-2,6-dioxo-2,3-dihydro-1H-purin-7(6H)-yl)-N-(6-(2-(trifluoromethyl)pyrimidin-5-yl)pyrazin-2-yl)propanamide]: the IC50 at human TRPA1 came out at 19 nM. The “Average PWL Post-Treatment” value in assay [1] (setting [3]) is 159.2; in assay [1] (setting [10]), 106.4; in assay [1] (setting [4]) it was 208.5; in assay [1] (setting [11]) it was 155.2; in assay [1] (setting [5]), 258.9; in assay [1] (setting [12]) it was 236.7. The “PWL Change” value was 49.6 s in assay [1] (setting [3]); 11.9 s in assay [1] (setting [10]); 94.2 s in assay [1] (setting [4]); 59.8 s in assay [1] (setting [11]); 148.8 s in assay [1] (setting [5]); 142.4 s in assay [1] (setting [12]). Moreover, the “Average PWL Post-CFA” value in assay [1] (setting [6]) turned out to be 109.6; in assay [1] (group 0.3 mg/kg PO, suspension in 0.5% methylcellulose) it was 94.5; in assay [1] (setting [7]), 114.3; in assay [1] (setting [13]), 95.4; in assay [1] (setting [8]) it was 110.1; in assay [1] (setting [14]) it was 94.3. Also, the “Duration (0-2 Minutes) Average” value is 99.6 s in assay [2] (setting [15]); 80.5 s in assay [2] (setting [16]); 97.5 s in assay [2] (setting [17]); 86.5 s in assay [2] (setting [18]); 71.8 s in assay [2] (setting [9]); 78.0 s and 92.3 s in assay [2] (setting [19]). The “Duration (0-2 Minutes) Average” value in assay [2] (setting [20]) came out at 100.5 s. Also, the “Duration (0-5 Minutes) Average” value in assay [2] (setting [15]) was 206.9 s; in assay [2] (setting [16]), 202.5 s; in assay [2] (setting [17]), 186.9 s; in assay [2] (setting [18]), 190.1 s; in assay [2] (setting [9]), 116.5 s; in assay [2] (setting [19]), 202.8 s and 163.1 s. Also, the “Duration (0-5 Minutes) Average” value in assay [2] (setting [20]) was found to be 165.4 s.
Consider `CC(=O)Cn1c(=O)c2c(ncn2[C@@H](C)C(=O)Nc2csc(-c3ccc(N4CC5C(C4)C5(F)F)nc3)n2)n(C)c1=O` (stereo partly drawn) [Compound 79, (2S)—N-(2-(6-(6,6-difluoro-3-azabicyclo[3.1.0]hexan-3-yl)pyridin-3-yl)thiazol-4-yl)-2-(3-methyl-2,6-dioxo-1-(2-oxopropyl)-2,3-dihydro-1H-purin-7(6H)-yl)propanamide], for which the IC50 on human TRPA1 is 3 nM. In addition, the “Average PWL Post-Treatment” value is reported as 140.2 in assay [1] (setting [11]), 201.8 in assay [1] (setting [12]) and 231.5 in assay [1] (setting [21]). The “PWL Change” value in assay [1] (setting [11]) is given as 38.0 s; in assay [1] (setting [12]), 99.6 s; in assay [1] (setting [21]) it was 129.3 s. Also, the “Average PWL Post-CFA” value in assay [1] (setting [13]) worked out at 102.2; in assay [1] (setting [14]) it was 102.2; in assay [1] (group 10 mg/kg PO, suspension in 0.5% methylcellulose), 102.3. In addition, the “Duration (0-2 Minutes) Average” value in assay [2] (setting [16]) amounted to 86.1 s; in assay [2] (setting [18]), 86.5 s; in assay [2] (setting [19]), 77.3 s. In addition, the results for the “Duration (0-5 Minutes) Average” value in assay [2] (setting [16]), in assay [2] (setting [18]) and in assay [2] (setting [19]) were 169.8 s, 151.1 s and 142.5 s, respectively.
